Experimental data reported in patent US20070049564A1 (Wyeth, priority 2005, published 2007).
Converted amounts (≈) assume the structure as drawn. Read-outs that look alike come from different tables or passages of the source.

Tests used:
E. coli GC 2235 = assay: MIC, broth microdilution; conditions: Escherichia coli
E. coli GC 2272 = assay: MIC, broth microdilution; conditions: Escherichia coli
E. coli GC 4559 = assay: MIC, broth microdilution; conditions: Escherichia coli
E. coli GC 4560 = assay: MIC, broth microdilution; conditions: Escherichia coli
E. coli GC 6465 = assay: MIC, broth microdilution; conditions: Escherichia coli
E. coli GC 1073 = assay: MIC, broth microdilution; conditions: Escherichia coli
S. typhimurium GC 2172 = assay: MIC, broth microdilution; conditions: Salmonella enterica, TYPHIMURIUM
S. aureus GC 1131 = assay: MIC, broth microdilution; conditions: Staphylococcus aureus
S. aureus GC 6467 = assay: MIC, broth microdilution; conditions: Staphylococcus aureus
S. aureus GC 1079 = assay: MIC, broth microdilution; conditions: Staphylococcus aureus
Experimental: Antimicrobial susceptibility testing. The in vitro activities of the antibiotics are determined by the broth microdilution method as recommended by the National Committee for Clinical Laboratory Standards (NCCLS) (1). Mueller-Hinton II broth (MHBII)(BBL Cockeysville, Md.) is the medium employed in the testing procedures. Microtiter plates containing serial dilutions of each antimicrobial agent are inoculated with each organism to yield the appropriate density (10^5 CFU/ml) in a 100 μl final volume. The plates are incubated for 18-22 hours at 35° C. in ambient air.
Representative compounds were first incubated in mouse serum for an hour prior to the in vitro testing against a panel of selected gram-positive and gram-negative bacteria strains. All compounds were also pre-incubated in water for an hour prior to testing as control. Representative compounds of Formula I were incubated in human serum prior to MIC determination.

S. aureus GC 4536 = assay: MIC, broth microdilution; conditions: Staphylococcus aureus
S. epidermidis GC 4935 = assay: MIC, broth microdilution; conditions: Staphylococcus epidermidis
E. faecalis GC 4555 = assay: MIC, broth microdilution; conditions: Enterococcus faecalis
E. faecalis GC 2267 = assay: MIC, broth microdilution; conditions: Enterococcus faecalis
E. faecalis GC 2242 = assay: MIC, broth microdilution; conditions: Enterococcus faecalis
S. pneumoniae* GC 4465 = assay: MIC, broth microdilution; conditions: Streptococcus pneumoniae
S. pneumoniae+ GC 4465 = assay: MIC, broth microdilution; conditions: Streptococcus pneumoniae
S. agalactiae GC 4564 = assay: MIC, broth microdilution; conditions: Streptococcus agalactiae
c. albicans GC 3066 = assay: MIC, broth microdilution
Staph. aureus Smith = assay: In vivo activity (oral, iv; ED50) against Staph. aureus Smith in mice
Experimental: Representative examples of compounds of Formula I were tested for the oral efficacy using S. aureus Smith in mice.

Work on `CCCN(CC(=O)Nc1cc(N(C)C)c2c(c1O)C(=O)C1=C(O)[C@]3(O)C(=O)C(C(N)=O)=C(O)C(N(C)C)C3CC1C2)C(=O)OCc1oc(=O)oc1-c1ccccc1` (stereo in doubt) [Example 110, (2-oxo-5-phenyl-1,3-dioxol-4-yl)methyl 2-{[(7R,10aS)-9-(aminocarbonyl)-4,7-bis(dimethylamino)-1,8,10a,11-tetrahydroxy-10,12-dioxo-5,5a,6,6a,7,10,10a,12-octahydrotetracen-2-yl]amino}-2-oxoethyl(propyl)carbamate] yielded an MIC (E. coli GC 2235; GC2235, pre-incubation in mouse serum) of 0.5 µg/mL (≈ 0.633 µM), an MIC (E. coli GC 2235; GC2235, pre-incubation in water) of 1 µg/mL (≈ 1.27 µM) and an MIC (E. coli GC 2272; GC2272, pre-incubation in mouse serum) of 1 µg/mL (≈ 1.27 µM). It also gave an MIC (E. coli GC 2272; GC2272, pre-incubation in water) of 1 µg/mL (≈ 1.27 µM), an MIC (E. coli GC 4559; GC4559, pre-incubation in mouse serum) of 2 µg/mL (≈ 2.53 µM) and an MIC (E. coli GC 4559; GC4559, pre-incubation in water) of 2 µg/mL (≈ 2.53 µM). The MIC (E. coli GC 4560; GC4560, pre-incubation in mouse serum) was 0.25 µg/mL (≈ 0.317 µM), the MIC (E. coli GC 4560; GC4560, pre-incubation in water) was 0.5 µg/mL (≈ 0.633 µM) and the MIC (E. coli GC 6465; GC6465, pre-incubation in mouse serum) was 64 µg/mL (≈ 81 µM). It also gave an MIC (E. coli GC 6465; GC6465, pre-incubation in water) greater than 64 µg/mL, an MIC (E. coli GC 1073; GC1073, pre-incubation in mouse serum) of 2 µg/mL (≈ 2.53 µM) and an MIC (E. coli GC 1073; GC1073, pre-incubation in water) of 8 µg/mL (≈ 10.1 µM). For the same compound, the MIC (S. typhimurium GC 2172; pre-incubation in mouse serum) was 64 µg/mL (≈ 81 µM), the MIC (S. typhimurium GC 2172; pre-incubation in water) was greater than 64 µg/mL and the MIC (S. aureus GC 1131; GC1131, pre-incubation in mouse serum) was 2 µg/mL (≈ 2.53 µM). For the same compound, the MIC (S. aureus GC 1131; GC1131, pre-incubation in water) was 4 µg/mL (≈ 5.06 µM), the MIC (S. aureus GC 6467; GC6467, pre-incubation in mouse serum) was 32 µg/mL (≈ 40.5 µM) and the MIC (S. aureus GC 6467; GC6467, pre-incubation in water) was greater than 64 µg/mL. It also gave an MIC (S. aureus GC 1079; GC1079, pre-incubation in mouse serum) of 16 µg/mL (≈ 20.3 µM), an MIC (S. aureus GC 1079; GC1079, pre-incubation in water) of 16 µg/mL (≈ 20.3 µM) and an MIC (S. aureus GC 4536; GC4536, pre-incubation in mouse serum) of 4 µg/mL (≈ 5.06 µM). The MIC (S. aureus GC 4536; GC4536, pre-incubation in water) was 4 µg/mL (≈ 5.06 µM), the MIC (S. epidermidis GC 4935; GC4935, pre-incubation in mouse serum) was 4 µg/mL (≈ 5.06 µM) and the MIC (S. epidermidis GC 4935; GC4935, pre-incubation in water) was 8 µg/mL (≈ 10.1 µM). It also gave an MIC (E. faecalis GC 4555; GC4555, pre-incubation in mouse serum) of 1 µg/mL (≈ 1.27 µM), an MIC (E. faecalis GC 4555; GC4555, pre-incubation in water) of 2 µg/mL (≈ 2.53 µM) and an MIC (E. faecalis GC 2267; GC2267, pre-incubation in mouse serum) of 8 µg/mL (≈ 10.1 µM). For the same compound, the MIC (E. faecalis GC 2267; GC2267, pre-incubation in water) was 4 µg/mL (≈ 5.06 µM), the MIC (E. faecalis GC 2242; GC2242, pre-incubation in mouse serum) was 1 µg/mL (≈ 1.27 µM) and the MIC (E. faecalis GC 2242; GC2242, pre-incubation in water) was 1 µg/mL (≈ 1.27 µM). It also gave an MIC (S. pneumoniae* GC 4465; pre-incubation in mouse serum) of 0.25 µg/mL (≈ 0.317 µM), an MIC (S. pneumoniae* GC 4465; pre-incubation in water) of 0.12 µg/mL (≈ 0.152 µM) and an MIC (S. pneumoniae+ GC 4465; pre-incubation in mouse serum) of 4 µg/mL (≈ 5.06 µM). It also gave an MIC (S. pneumoniae+ GC 4465; pre-incubation in water) of 2 µg/mL (≈ 2.53 µM), an MIC (S. agalactiae GC 4564; GC4564, pre-incubation in mouse serum) of 0.25 µg/mL (≈ 0.317 µM) and an MIC (S. agalactiae GC 4564; GC4564, pre-incubation in water) of 0.25 µg/mL (≈ 0.317 µM). For the same compound, the MIC (c. albicans GC 3066; Candida albicans, GC3066) was greater than 64 µg/mL, the MIC (c. albicans GC 3066; pre-incubation in water) was greater than 64 UG/ML and the ED50 (Staph. aureus Smith; Staphylococcus aureus, in Mus musculus, po, read-out: ED50 Staph Smith SOD) was 31.9 mg/kg. It also gave an ED50 (Staph. aureus Smith; iv, read-out: ED50 Staph Smith SIV) of 0.6 mg/kg.
